US20200345761A1, “PREVENTIVE AND/OR THERAPEUTIC AGENT FOR DEMENTIA” (MITOS CO., LTD., priority 2017, published 2020)

Legend:
Alzheimer-type dementia = conditions: cited from earlier work
[1] = inhalation of H2 gas (3%) containing 21% oxygen; cited from earlier work
[2] = system: Alzheimer-type dementia patients
Description: Patients were selected on the basis of the following three criteria.
(1) Deterioration in the score occurs such that the ADAS-cog score based on formula [70−(MMSE×2.33)] (J. Caro et al., BMC Neurol 2002; 2:6.) or the ADAS-cog score calculated in terms of MMSE (Mini-Mental State Examination) exceeds 10.
Finally, 11 patients were selected, and treated with H2 gas.
Since the probability of suffering complications increases as the concentration of lithium in blood increases, the dosage of lithium carbonate was reduced (W. S. Waring, Toxicol Rev 2006; 25:221-230.). The patients of the treatment group were given oral administration of a 200 mg tablet of lithium carbonate (Li2CO3) (Mitsubishi Tanabe Pharma Corporation) twice a day and inhalation of 3% H2 twice a day. The test period was 6 months. As the gas containing H2, H2 gas (3%) containing 21% oxygen was generated using a portable H2 generator (Nishijima/Ecore Gas Hydrogen Generator) (H. Ono et al., J Stroke Cerebrovasc Dis 2017; 26:2587-2594.). […] Since lithium carbonate is used as a therapeutic agent for depression and mania (bipolar disorder), and it was reported that patients who ingested lithium carbonate less likely developed dementia, lithium carbonate was used in this Example.
The patients were evaluated by a blind method using the ADAS-cog score.
The ADAS-cog test was conducted every 1 to 2 months. The efficacy of treatment with respect to the ADAS-cog score was determined by comparing the ADAS-cog score at the start of the test with two or three tests during treatment.

dementia patients = conditions: hydrogen gas about 3 to 4% inhaled 1 hour twice a day, 6-month treatment period, six patients
Description: Patients (outpatients in Iryohojin Shadanshinwakai Nishijima Byoin (Numazu-shi, Shizuoka)) in whom rapid deterioration (deterioration by 3 or more points over 1 year) in a cognitive function test such as MMSE or ADAS-cog occured although existing four agents for dementia were used over a long period of time, and improvement is not attained by other ordinary treatment methods.
Patients for whom it is considered difficult to repeatedly inhale hydrogen gas over a long period of time because of severe medical disease, chronic chest disease (chronic obstructive pulmonary disease (COPD), asthma or the like), mouth inflammation or the like.
Patients for whom it is determined from a score in the ADAS-cog cognitive function test that a therapeutic effect is achieved.

[3] = 11 patients including the unresponsive patient, at completion of H2 treatment

COc1cc2c(cc1OC)C(=O)C(CC1CCN(Cc3ccccc3)CC1)C2 (centres unmarked) [Donepezil]
ADAS-cog score of the administration group (Alzheimer-type dementia; after 6 months): turned back to the initial value
Change of ADAS-cog score (Alzheimer-type dementia; after 6 weeks): −3 points

[HH] [H2, hydrogen gas]
Blood concentration [1]: confirmed to increase
Average change of ADAS-cog score with respect to the initial score [2, 3]: −3.4
Average change of ADAS-cog score with respect to the worst score [2, 3]: −8.5
Patients whose ADAS-cog score was improved (decreased) from that at the start time ([2]; at the end of the H2 treatment period, 11 patients): seven
Worst score: B (ADAS-cog), average ([2]; average of 11 patients): 39.2
Final score: C (ADAS-cog), average ([2]; average of 11 patients at completion of H2 treatment): 30.7
Patients with improvement in the ADAS-cog score ([2]; combination therapy with H2 and lithium, Alzheimer-type dementia patients): 10 out of 11
Therapeutic effect judged from ADAS-cog score (effective cases) (dementia patients): effective in all of the six patients

O=C([O-])[O-].[Li+].[Li+] [lithium, lithium carbonate, reference compound]
Cognitive function (ADAS-cog) with lithium used alone ([2]; after H2 treatment was stopped, lithium alone): the cognitive function was not improved
